{
  "source": "patent EP4257117A1",
  "about": "“SUSTAINED-RELEASE PHARMACEUTICAL COMPOSITION OF FULVESTRANT AND METHOD FOR PREPARING SAME” (Samyang Holdings Corporation, priority 2020, dated 2022)",
  "origin": "cited, not measured here",
  "key": {"[1]": {"conditions": "according to the prescription of Faslodex Injection"}, "[2]": {"conditions": "in pure water, according to FDA data"}},
  "note": "Read-outs that look alike come from different tables or passages of the source.",
  "data": [
    {"smiles": "C[C@]12CC[C@@H]3c4ccc(O)cc4C[C@@H](CCCCCCCCC[S+]([O-])CCCC(F)(F)C(F)(F)F)[C@H]3[C@@H]1CC[C@@H]2O", "note": "(stereo partly drawn) [Fulvestrant, 7-alpha-[9-(4,4,5,5,5-pentafluoropentylsulphinyl)nonyl]estra-1,3,5-(10)-triene-3,17beta-diol]", "values": [
      {"measurement": "saturation solubility of Fulvestrant", "setting": "[1]; at room temperature", "value": "about 90 mg/mL"},
      {"measurement": "saturation solubility of Fulvestrant", "setting": "[1]; in refrigerated storage", "value": "about 65 mg/mL"},
      {"measurement": "solubility in aqueous solution", "setting": "[2]", "value": "practically insoluble"}
    ]}
  ]
}
